Test results taken from patent publication US20250268253A1, “MULTIFUNCTIONAL NATURAL PROTECTANT SYSTEMS WITH HYDROXYACETOPHENONE” (BARENTZ NORTH AMERICA, LLC, priority 2021, published 2025).

Columns and labels:
mixture of bacteria = assay: CTFA Preservative Challenge Test in shampoo, mixed bacteria; assay type: cell-based; details: for concentration of the component alone required to yield 100% retardation (Qa, Qb): percent by weight in shampoo, plate count <10 cfu/g after 7 days; for Day 7 Count Mixed Bacteria: shampoo containing the sample, initial count 4×10^6 cfu/mL, surviving organisms on day 7
Procedure: (§1) The CTFA Preservative Challenge Test was performed on a shampoo containing the samples below against a mixture of fungi (C. albicans (ATCC #10231) and A. brasiliensis (ATCC #16404)) having an initial count of 7.9×10^5 cfu/mL or a mixture of bacteria having an initial count of 4×10^6 cfu/mL. The shampoos inoculated with bacteria were allowed to stand for 14 days and the shampoos inoculated with fungi were allowed to stand for 7 days. The samples were evaluated for surviving organisms on day 7 for fungi-innoculated shampoos and days 7 and 14 for bacteria-innoculated shampoos.
From the table, synergism for the combinations above against mixed bacteria in shampoo was calculated by the method described in C. E. Kull et al., “Mixtures of Quaternary Ammonium Compounds and Long-chain Fatty Acids as Antifungal Agents”, Applied Microbiology, 9:538-541 (1961). The synergism value (QA/Qa+QB/Qb) was determined. […] Qa is the concentration of the first component alone (in percent by weight) required to yield 100% retardation of the bacteria or fungi. Qb is the concentration of the second component alone (in percent by weight) required to yield 100% retardation of the bacteria or fungi. […] Values for (QA/Qa+QB/Qb) of 1 and greater represent an additive effect and an antagonistic effect, respectively.

[1] = system: mixture of fungi (C. albicans (ATCC #10231) and A. brasiliensis (ATCC #16404)); assay: CTFA Preservative Challenge Test in shampoo, mixed fungi; assay type: cell-based; details: shampoo containing the sample; initial count 7.9×10^5 cfu/mL; surviving organisms on day 7
Procedure: as §1
From the table, synergism for the combinations above against mixed bacteria in shampoo was calculated by the method described in C. E. Kull et al., “Mixtures of Quaternary Ammonium Compounds and Long-chain Fatty Acids as Antifungal Agents”, Applied Microbiology, 9:538-541 (1961). The synergism value (QA/Qa+QB/Qb) was determined. […] Qa is the concentration of the first component alone (in percent by weight) required to yield 100% retardation of the bacteria or fungi. Qb is the concentration of the second component alone (in percent by weight) required to yield 100% retardation of the bacteria or fungi. When the value of (QA/Qa+QB/Qb) is less than one, the mixture is synergistic. Values for (QA/Qa+QB/Qb) of 1 and greater represent an additive effect and an antagonistic effect, respectively. […]

SMILES	concentration of the component alone required to yield 100% retardation (Qa, Qb) (mixture of bacteria)	Day 7 Count Mixed Bacteria (mixture of bacteria)	Day 7 Count Mixed Fungi [1]
OCCCO [5% 1,3-propanediol, 1,3-propanediol]	> 5%	5.2 × 10^2 cfu/mL	9.2 × 10^2 cfu/mL
CC(=O)c1ccc(O)cc1 [0.35% hydroxyacetophenone, 4-hydroxyacetophenone]	> 0.35%	3.2 × 10^2 cfu/mL	1.5 × 10^2 cfu/mL
